Laboratory results from patent US11638736B2, “Compositions for preventing or treating diseases or disorders associated with neuro-inflammation, neuro-apoptosis, or neuro- oxidative damage and uses thereof” (priority 2018, dated 2023).

Experiments:
SH-SY5Y cells = assay: MTT cell viability in MPTP-treated SH-SY5Y cells; assay type: cell-based, human; conditions: 24 h
Procedure: 1-Methyl-4-phenylpyridinium (MPP+) induces a severe parkinsonian-like syndrome and a significant reduction in dopaminergic cells by the selective inhibition of complex I in the mitochondrial electron transport chain.
(§1) Human Neuroblastoma Cells (SH-SY5Y) (Korean Cell Bank, Seoul, Korea) were cultured in Dulbecco's modified Eagle's medium containing 10% fetal bovine serum (Hyclone, Logan, Utah, USA) and 1% penicillin-streptomycin (GIBCO, Grand Island, N.Y., USA) in a humidified incubator with 5% CO2 at 37° C.
SH-SY5Y ([…]) cells were cultured in a 96-well plate, and cell viability was determined using the MTT (Promega, Madison, Wis., USA) assay as described previously. […] The MTT solution was then added, followed by incubation at 37° C. for 4 h. The supernatant was removed, and the formed formazan crystals were dissolved in dimethyl sulfoxide. The absorbance of the resulting solution was measured at 540 nm using a UVM 340 microplate reader (Biochrom Asys, Cambridge, UK).

Mac-1 [1] = assay: Western blotting, MPTP-treated SH-SY5Y cells: Mac-1; assay type: cell-based, human; conditions: 2-mM MPTP-intoxicated SH-SY5Y cells
Procedure: as §1

cytochrome C [2] = assay: Western blotting, MPTP-treated SH-SY5Y cells: cytochrome C; assay type: cell-based, human; conditions: MPTP-intoxicated SH-SY5Y cells
Procedure: as §1

TH-positive cells = assay: Immunohistochemical staining of tyrosine hydroxylase (TH) neurons, MPTP-intoxicated mice; assay type: in vivo, C57BL/6 mice
Procedure: Brain sections (4 μm thick) were deparaffinized in xylene-alcohol series for 5 min each, with subsequent recovery of antigenic sites on steam fluent (pot value) for 30 min. The slides were washed twice for 5 min with 1× phosphate-buffered saline (PBS) and then immersed in 0.3% hydrogen peroxide for 30 min at 25° C. to block endogenous peroxidase activity. The sections were incubated with 10% goat serum (for polyclonal antibodies) for 30 min and then incubated at 4° C. with the TH primary antibody (Abcam, Cambridge, UK) for 24 h. Subsequently, all samples were incubated with biotinylated goat anti-rabbit IgG (H+L) horseradish peroxidase (HRP)-conjugated antibodies (Zymax). The sections were incubated with 3,3-diaminobenzidine (Vectro Laboratories, Inc., Burlingame, Calif., USA) for 10 min at 37° C. Finally, the tissue sections were counterstained with hematoxylin for 2 min, dehydrated with an alcohol-xylene series, and mounted with coverslips using Permount mounting medium (Thermo Fisher Scientific). The specimens were examined using a Nikon Eclipse TS100 microscope (Nikon, Tokyo, Japan) at 200× magnification, and the microscopy images were analyzed using the OptiView image analysis software (Korea Lab Tech, Seongnam-si, Republic of Korea). Immunopositive neurons were counted manually.

SOD = assay type: in vivo, C57BL/6 mice; conditions: MPTP-treated mice, brain
Excerpt: (§2) All experimental animals were approved by the Institutional Animal Care and Use Committee at Konkuk University (IACUC approval number, KU18045), Seoul, Republic of Korea.

cytochrome C [3] = assay type: in vivo, C57BL/6 mice; conditions: MPTP-intoxicated mice, brain
Excerpt: as §2

iNos [4] = assay type: in vivo, C57BL/6 mice; conditions: brain
Excerpt: as §2

COX-2 = assay type: in vivo, SD rats
Procedure: (§3) Four-week-old male SD rats were purchased from Rion Bio, Inc. and were housed in a temperature-controlled (21-22° C.) and light-controlled (12 h light/dark cycle) environment with 70% humidity; they were given free access to water and rodent chow. […] The brains were dissected and analyzed by histological and western blotting analysis.
(§4) Rat brains were lysed in radioimmunoprecipitation assay lysis buffer containing protease inhibitor (Roche, Mannheim, Germany) and centrifuged at 10,000×g for 30 min at 4° C. Total protein levels were determined using a Bio-Rad protein kit (Bio-Rad, Hercules, Calif., USA). The proteins were separated by electrophoresis in a 10-15% sodium dodecyl sulfate-polyacrylamide gel and transferred onto the Immobilon-P transfer membrane (EMD Millipore Co., Bedford, Mass., USA). The membrane was blocked with 5% bovine serum albumin (Sigma-Aldrich). […] Protein bands were detected using a chemiluminescence method (Thermo Fisher Scientific) by a C-DiGit Blot Scanner (Li-COR, Lincoln, Nebr., USA), and their densities were quantified using ImageJ (NIH, Rockville, Md., USA). […]

Mac-1 [5] = tested on: Mac-1
Procedure: as §3, §4

p-IκB-α [6] = assay: Western blotting of brain, MPTP-treated mice: p-IκB-α; assay type: in vivo, C57BL/6 mice; conditions: Levodopa
Excerpt: as §2

Bcl-2 = assay: Western blotting of brain, MPTP-treated mice: Bcl-2; assay type: in vivo, C57BL/6 mice; conditions: Levodopa (positive control)
Excerpt: as §2

iNOS [7] = assay: Western blotting of midbrain, MPTP-treated rats: iNOS; assay type: in vivo, SD rats; conditions: levodopa 10 mg/kg
Procedure: as §3, §4

p-IκB-α [8] = assay: Western blotting of midbrain, MPTP-treated rats: p-IκB-α; assay type: in vivo, SD rats; conditions: levodopa 10 mg/kg
Procedure: as §3, §4

| Structure (SMILES) | cell death (SH-SY5Y cells; 1 mM MPTP) [%] | cell death (SH-SY5Y cells; 2 mM MPTP) [%] | Mac-1 protein expression level elevated by, compared with normal cells (Mac-1 [1]) [folds] | protein expression level of cytochrome C upregulated (cytochrome C [2]) [folds] | number of TH-positive cells reduced, compared with sham group (TH-positive cells; MPTP-intoxicated mice, 20 mg/kg/day) | expression level of SOD lower than in sham group (SOD) [folds] | protein expression level of cytochrome C upregulated by, compared with sham mice (cytochrome C [3]) [folds] | iNos protein expression level elevated by, compared with sham group (iNos [4]; MPTP-treated mice) [folds] | COX-2 protein overexpressed, with reference to sham operated group (COX-2; MPTP-intoxicated rats) [fold] | expression of Mac-1 protein elevated, compared with sham groups (Mac-1 [5]; MPTP control rats) [fold] | numbers of TH-positive cells vs MPTP-intoxicated group (TH-positive cells; MPTP mice, levodopa 2 mg/kg oral) | elevation of iNos expression (iNos [4]; MPTP mice, Levodopa treatment) | increased p-IκB-α level (p-IκB-α [6]) | effects of MPTP on Bcl-2 protein expression (Bcl-2) | elevated iNOS expression inhibited vs MPTP control (iNOS [7]) [fold] | expression level of COX-2 downregulated (COX-2; MPTP rats, levodopa 10 mg/kg) [fold] | p-IκB-α level reduced, compared to MPTP control group (p-IκB-α [8]) [fold] | elevated level of MAC-1 attenuated vs MPTP control (Mac-1 [5]; MPTP rats, levodopa 10 mg/kg) [fold] |
| --- | --- | --- | --- | --- | --- | --- | --- | --- | --- | --- | --- | --- | --- | --- | --- | --- | --- | --- |
| CN1CC=C(c2ccccc2)CC1 [MPTP, 1-methyl-4-phenyl-1,2,3,6-tetrahydropyridine] | 29.05 | 68.89 | 0.8 | 10 | more than two-fold | 2.3 | 0.54 | 0.44 | 6 | 6.4 | – | – | – | – | – | – | – | – |
| N[C@@H](Cc1ccc(O)c(O)c1)C(=O)O [Levodopa] | – | – | – | – | – | – | – | – | – | – | significantly elevated | inhibited | slightly restored | significantly reversed | 2.9 | 1.7 | 1.2 | 1.9 |
